pIC50: −log10 of the molar value. Where a name gives a salt, the structure may show the parent alone.
Columns and labels:
COR-L23 = assay: cells; assay type: functional, cell-based, Homo sapiens; settings: Homo sapiens, COR-L23;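 further: cell viability assay measuring how strongly compounds suppress growth of COR-L23 cells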
Description: SANGER: Inhibition of human COR-L23 cell growth in a cell viability assay.

CaR-1 = assay: cells; assay type: functional, cell-based, Homo sapiens; settings: Homo sapiens, CaR-1;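 further: growth inhibition of human CaR-1 cancer cells, read out with a cell viability assay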
Description: SANGER: Inhibition of human CaR-1 cell growth in a cell viability assay.

Calu-1 = assay: SANGER: Inhibition of human Calu-1 cell growth in a cell viability assay.; assay type: functional, cell-based; settings: Homo sapiens, Calu-1
DV-90 = assay: cells; assay type: functional, cell-based, Homo sapiens; settings: Homo sapiens, DV-90;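 further: Read-out is a viability assay, with IC50 reflecting the drop in DV-90 cell growth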
Description: SANGER: Inhibition of human DV-90 cell growth in a cell viability assay.

EB-3 = assay: cells; assay type: functional, cell-based, Homo sapiens; settings: Homo sapiens, EB-3;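 further: human EB-3 cells, growth inhibition read out via a cell viability assay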
Description: SANGER: Inhibition of human EB-3 cell growth in a cell viability assay.

EFE-184 = assay: cells; assay type: functional, cell-based, Homo sapiens; settings: Homo sapiens, EFE-184
Description: SANGER: Inhibition of human EFE-184 cell growth in a cell viability assay.

IMR-5 = assay: cells; assay type: functional, cell-based, Homo sapiens; settings: Homo sapiens, IMR-5;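 further: growth inhibition of human IMR-5 cells, read out with a cell viability assay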
Description: SANGER: Inhibition of human IMR-5 cell growth in a cell viability assay.

IPC-298 = assay: SANGER: Inhibition of human IPC-298 cell growth in a cell viability assay.; assay type: functional, cell-based; settings: Homo sapiens, IPC-298
KP-4 = assay: cells; assay type: functional, cell-based, Homo sapiens; settings: Homo sapiens, KP-4;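 further: human KP-4 cells, with growth inhibition read out through a cell viability assay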
Description: SANGER: Inhibition of human KP-4 cell growth in a cell viability assay.

KU-19-19 = assay: cells; assay type: functional, cell-based, Homo sapiens; settings: Homo sapiens, KU-19-19
Description: SANGER: Inhibition of human KU-19-19 cell growth in a cell viability assay.

LU-99A = assay: cells; assay type: functional, cell-based, Homo sapiens; settings: Homo sapiens, LU-99A;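 further: growth inhibition of LU-99A cells, read out with a cell viability assay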
Description: SANGER: Inhibition of human LU-99A cell growth in a cell viability assay.

MCF7 = assay: cells; assay type: functional, cell-based, Homo sapiens; settings: Homo sapiens, MCF7;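 further: growth inhibition of human MCF7 cells, read out with a cell viability assay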
Description: SANGER: Inhibition of human MCF7 cell growth in a cell viability assay.

NCI-H1618 = assay: cells; assay type: functional, cell-based, Homo sapiens; settings: Homo sapiens, NCI-H1618;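 further: growth inhibition of human NCI-H1618 cells, measured by a cell viability assay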
Description: SANGER: Inhibition of human NCI-H1618 cell growth in a cell viability assay.

NCI-H1734 = assay: cells; assay type: functional, cell-based, Homo sapiens; settings: Homo sapiens, NCI-H1734;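 further: growth inhibition of human NCI-H1734 cells, read out with a cell viability assay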
Description: SANGER: Inhibition of human NCI-H1734 cell growth in a cell viability assay.

NCI-H2228 = assay: cells; assay type: functional, cell-based, Homo sapiens; settings: Homo sapiens, NCI-H2228;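 further: growth inhibition of human NCI-H2228 cells, read out by a cell viability assay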
Description: SANGER: Inhibition of human NCI-H2228 cell growth in a cell viability assay.

NCI-H322M = assay: cells; assay type: functional, cell-based, Homo sapiens; settings: Homo sapiens, NCI-H322M;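 further: cell viability assay measuring inhibition of growth of human NCI-H322M cells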
Description: SANGER: Inhibition of human NCI-H322M cell growth in a cell viability assay.

OAW-42 = assay: cells; assay type: functional, cell-based, Homo sapiens; settings: Homo sapiens, OAW-42;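 further: growth inhibition of OAW-42 cells, read out with a cell viability assay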
Description: SANGER: Inhibition of human OAW-42 cell growth in a cell viability assay.

OE19 = assay: cells; assay type: functional, cell-based, Homo sapiens; settings: Homo sapiens, OE19;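 further: growth inhibition of OE19 cells, measured through a cell viability read-out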
Description: SANGER: Inhibition of human OE19 cell growth in a cell viability assay.

OVCAR-3 = assay: cells; assay type: functional, cell-based, Homo sapiens; settings: Homo sapiens, OVCAR-3;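 further: growth inhibition of human OVCAR-3 cells, determined by a cell viability assay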
Description: SANGER: Inhibition of human OVCAR-3 cell growth in a cell viability assay.

Panc1005 = assay: cells; assay type: functional, cell-based, Homo sapiens; settings: Homo sapiens, Panc1005;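 further: growth inhibition of human PANC-10-05 cells, measured by a cell viability assay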
Description: SANGER: Inhibition of human PANC-10-05 cell growth in a cell viability assay.

PLC-PRF-5 = assay: cells; assay type: functional, cell-based, Homo sapiens; settings: Homo sapiens, PLC-PRF-5;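 further: growth inhibition of human PLC-PRF-5 cells, read out with a viability assay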
Description: SANGER: Inhibition of human PLC-PRF-5 cell growth in a cell viability assay.

Raji = assay: cells; assay type: functional, cell-based, Homo sapiens; settings: Homo sapiens, Raji;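 further: cell viability assay measuring inhibition of Raji cell growth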
Description: SANGER: Inhibition of human Raji cell growth in a cell viability assay.

SNG-M = assay: cells; assay type: functional, cell-based, Homo sapiens; settings: Homo sapiens, SNG-M
Description: SANGER: Inhibition of human SNG-M cell growth in a cell viability assay.

SW48 = assay: cells; assay type: functional, cell-based, Homo sapiens; settings: Homo sapiens, SW48;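 further: growth inhibition of SW48 cells, read out with a cell viability assay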
Description: SANGER: Inhibition of human SW48 cell growth in a cell viability assay.

23132-87 = assay: cells; assay type: functional, cell-based, Homo sapiens; settings: Homo sapiens
Description: SANGER: Inhibition of human 23132-87 cell growth in a cell viability assay.

639-V = assay: cells; assay type: functional, cell-based, Homo sapiens; settings: Homo sapiens, 639-V;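 further: growth inhibition of 639-V cells, read out with a cell viability assay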
Description: SANGER: Inhibition of human 639-V cell growth in a cell viability assay.

8305C = assay: cells; assay type: functional, cell-based, Homo sapiens; settings: Homo sapiens, 8305C
Description: SANGER: Inhibition of human 8305C cell growth in a cell viability assay.

A-427 = assay: cells; assay type: functional, cell-based, Homo sapiens; settings: Homo sapiens, A-427;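 further: growth inhibition of human A-427 cells, read out by a cell viability assay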
Description: SANGER: Inhibition of human A427 cell growth in a cell viability assay.

CAL-120 = assay: cells; assay type: functional, cell-based, Homo sapiens; settings: Homo sapiens, CAL-120;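 further: cell growth inhibition, read out as cell viability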
Description: SANGER: Inhibition of human CAL-120 cell growth in a cell viability assay.

TYK-nu = assay: cells; assay type: functional, cell-based, Homo sapiens; settings: Homo sapiens, TYK-nu;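 further: growth inhibition of human TYK-nu cells, read out by a cell viability assay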
Description: SANGER: Inhibition of human TYK-nu cell growth in a cell viability assay.

U2OS = assay: cells; assay type: functional, cell-based, Homo sapiens, U-2-OS; settings: Homo sapiens, U2OS;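 further: growth inhibition of human U-2-OS cells, determined with a cell viability assay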
Description: SANGER: Inhibition of human U-2-OS cell growth in a cell viability assay.

U-251 = assay: cells; assay type: functional, cell-based, Homo sapiens; settings: Homo sapiens, U-251;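 further: growth inhibition of human U-251 cells, read out through a cell viability assay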
Description: SANGER: Inhibition of human U251 cell growth in a cell viability assay.

WSU-NHL = assay: cells; assay type: functional, cell-based, Homo sapiens; settings: Homo sapiens, WSU-NHL;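 further: growth inhibition of human WSU-NHL cells, read out with a cell viability assay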
Description: SANGER: Inhibition of human WSU-NHL cell growth in a cell viability assay.

CCF-STTG1 = assay: cells; assay type: functional, cell-based, Homo sapiens; settings: Homo sapiens, CCF-STTG1;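 further: growth inhibition of human CCF-STTG1 cells, determined with a cell viability read-out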
Description: SANGER: Inhibition of human CCF-STTG1 cell growth in a cell viability assay.

CMK = assay: cells; assay type: functional, cell-based, Homo sapiens; settings: Homo sapiens, CMK;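 further: growth inhibition of CMK cells, read out as cell viability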
Description: SANGER: Inhibition of human CMK cell growth in a cell viability assay.

H9 = assay: cells; assay type: functional, cell-based, Homo sapiens; settings: Homo sapiens, H9
Description: SANGER: Inhibition of human H9 cell growth in a cell viability assay.

LU-135 = assay: cells; assay type: functional, cell-based, Homo sapiens; settings: Homo sapiens, LU-135
Description: SANGER: Inhibition of human LU-135 cell growth in a cell viability assay.

NB7 = assay: cells; assay type: functional, cell-based, Homo sapiens; settings: Homo sapiens, NB7;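 further: growth inhibition of NB7 cells, read out with a cell viability assay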
Description: SANGER: Inhibition of human NB7 cell growth in a cell viability assay.

NCI-H1666 = assay: cells; assay type: functional, cell-based, Homo sapiens; settings: Homo sapiens, NCI-H1666;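 further: growth inhibition of the cell line, read out with a cell viability assay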
Description: SANGER: Inhibition of human NCI-H1666 cell growth in a cell viability assay.

NCI-H2291 = assay: cells; assay type: functional, cell-based, Homo sapiens; settings: Homo sapiens, NCI-H2291
Description: SANGER: Inhibition of human NCI-H2291 cell growth in a cell viability assay.

NCI-H630 = assay: cells; assay type: functional, cell-based, Homo sapiens; settings: Homo sapiens, NCI-H630;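 further: growth inhibition of NCI-H630 cells, read out with a cell viability assay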
Description: SANGER: Inhibition of human NCI-H630 cell growth in a cell viability assay.

RH-18 = assay: cells; assay type: functional, cell-based, Homo sapiens; settings: Homo sapiens, Rh18;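 further: growth inhibition of human RH-18 cells, read out with a cell viability assay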
Description: SANGER: Inhibition of human RH-18 cell growth in a cell viability assay.

SW 1116 = assay: cells; assay type: functional, cell-based, Homo sapiens; settings: Homo sapiens, SW 1116;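 further: growth inhibition of SW1116 cells, read out with a cell viability assay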
Description: SANGER: Inhibition of human SW1116 cell growth in a cell viability assay.

TGBC11TKB = assay: cells; assay type: functional, cell-based, Homo sapiens; settings: Homo sapiens, TGBC11TKB;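 further: growth inhibition of human TGBC11TKB cells, measured by a cell viability assay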
Description: SANGER: Inhibition of human TGBC11TKB cell growth in a cell viability assay.

TI-73 = assay: cells; assay type: functional, cell-based, Homo sapiens; settings: Homo sapiens, TI-73;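 further: cell viability assay measuring how much compounds suppress growth of the cultured cell line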
Description: SANGER: Inhibition of human TI-73 cell growth in a cell viability assay.

YH-13 = assay: cells; assay type: functional, cell-based, Homo sapiens; settings: Homo sapiens, YH-13;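 further: cell viability readout of growth suppression in the human YH-13 cell line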
Description: SANGER: Inhibition of human YH-13 cell growth in a cell viability assay.

| SMILES | pIC50 (COR-L23) | pIC50 (CaR-1) | pIC50 (Calu-1) | pIC50 (KU-19-19) | pIC50 (LU-99A) | pIC50 (MCF7) | pIC50 (NCI-H2228) | pIC50 (OAW-42) | pIC50 (OE19) | pIC50 (OVCAR-3) | pIC50 (Panc1005) | pIC50 (SW48) | pIC50 (23132-87) | pIC50 (639-V) | pIC50 (8305C) | pIC50 (A-427) | pIC50 (CAL-120) | pIC50 (TYK-nu) | pIC50 (U2OS) | pIC50 (U-251) | also measured |
| --- | --- | --- | --- | --- | --- | --- | --- | --- | --- | --- | --- | --- | --- | --- | --- | --- | --- | --- | --- | --- | --- |
| CCC/C=C/C=C/C(=O)O[C@H]1/C(=C/C(=O)OC)C[C@H]2C[C@H]([C@@H](C)O)OC(=O)C[C@H](O)C[C@@H]3C[C@H](OC(C)=O)C(C)(C)[C@](O)(C[C@@H]4C/C(=C/C(=O)OC)C[C@H](/C=C/C(C)(C)[C@]1(O)O2)O4)O3 [BRYOSTATIN 1] | < 8.10 | < 8.10 | < 8.10 | < 8.10 | < 8.10 | < 8.10 | < 8.10 | < 8.10 | < 8.10 | < 8.10 | < 8.10 | < 8.10 | < 8.10 | < 8.10 | < 8.10 | < 8.10 | < 8.10 | < 8.10 | < 8.10 | < 8.10 | pIC50 (DV-90): < 8.10; pIC50 (EB-3): < 8.10; pIC50 (EFE-184): < 8.10; pIC50 (IMR-5): < 8.10; pIC50 (IPC-298): < 8.10; pIC50 (KP-4): < 8.10; pIC50 (NCI-H1618): < 8.10; pIC50 (NCI-H1734): < 8.10; pIC50 (NCI-H322M): < 8.10; pIC50 (PLC-PRF-5): < 8.10; pIC50 (Raji): < 8.10; pIC50 (SNG-M): < 8.10; pIC50 (WSU-NHL): < 8.10; pIC50 (CCF-STTG1): < 8.10; pIC50 (CMK): < 8.10 |
| COC1=CC(c2cc3ccccc3[nH]2)=N/C1=C\c1[nH]c(C)cc1C [OBATOCLAX MESYLATE] | 7.21 | 5.40 | 6.50 | 6.19 | 6.11 | > 7.20 | 6.05 | 6.67 | 5.78 | 6.29 | 6.94 | 6.11 | 6.08 | 6.81 | 6.75 | 7.07 | 6.53 | 6.75 | < 4.80 | 6.48 | pIC50 (DV-90): 5.76; pIC50 (EB-3): 6.76; pIC50 (EFE-184): 5.14; pIC50 (IMR-5): 7.49; pIC50 (IPC-298): > 7.20; pIC50 (KP-4): 6.16; pIC50 (NCI-H1618): 5.54; pIC50 (NCI-H1734): 6.38; pIC50 (NCI-H322M): < 4.80; pIC50 (PLC-PRF-5): 5.94; pIC50 (Raji): 5.99; pIC50 (SNG-M): > 7.20; pIC50 (WSU-NHL): 7.12; pIC50 (CCF-STTG1): 6.03; pIC50 (CMK): 7.52 |
| Nc1ccn([C@@H]2O[C@H](CO)[C@@H](O)C2(F)F)c(=O)n1 [GEMCITABINE] | 7.85 | 6.26 | 6.66 | < 5.99 | < 5.99 | > 8.40 | > 8.40 | 7.04 | 6.15 | < 5.99 | 7.81 | 6.33 | 7.37 | 6.71 | 8.02 | 6.49 | 6.24 | 7.14 | < 5.99 | 7.65 | pIC50 (DV-90): < 5.99; pIC50 (EB-3): < 5.99; pIC50 (EFE-184): < 5.99; pIC50 (IMR-5): 7.08; pIC50 (IPC-298): 6.59; pIC50 (NCI-H1618): 6.70; pIC50 (NCI-H1734): 7.95; pIC50 (NCI-H322M): < 5.99; pIC50 (PLC-PRF-5): < 5.99; pIC50 (Raji): 6.37; pIC50 (SNG-M): > 8.40; pIC50 (WSU-NHL): 7.30; pIC50 (CCF-STTG1): 7.50; pIC50 (CMK): > 8.40 |
| CC(C)CCN1c2nc(Nc3cc(F)c(O)c(F)c3)ncc2N(C)C(=O)C1C (centres undefined) | 5.32 | < 5.30 | – | 5.44 | < 5.30 | < 5.30 | < 5.30 | < 5.30 | < 5.30 | < 5.30 | < 5.30 | 5.46 | < 5.30 | 5.57 | 5.41 | 5.51 | < 5.30 | 5.45 | < 5.30 | 5.56 | pIC50 (H9): 7.22; pIC50 (KP-4): < 5.30; pIC50 (LU-135): < 5.30; pIC50 (NB7): < 5.30; pIC50 (NCI-H1666): < 5.30; pIC50 (NCI-H2291): < 5.30; pIC50 (NCI-H630): < 5.30; pIC50 (RH-18): < 5.30; pIC50 (SW 1116): < 5.30; pIC50 (TGBC11TKB): < 5.30; pIC50 (TI-73): < 5.30; pIC50 (YH-13): < 5.30 |
| Cc1cc([N+](=O)[O-])ccc1NS(=O)(=O)c1cc(Cl)ccc1Cl | 5.58 | < 4.49 | 5.06 | < 4.49 | 5.91 | 5.58 | 4.77 | 5.56 | 5.42 | 5.24 | 5.27 | 5.61 | 5.46 | 5.79 | 5.40 | 6.64 | 5.22 | 5.70 | < 4.49 | 5.66 | pIC50 (DV-90): 5.71; pIC50 (EB-3): 5.37; pIC50 (EFE-184): 5.24; pIC50 (IMR-5): 4.95; pIC50 (IPC-298): 5.57; pIC50 (KP-4): 5.78; pIC50 (NCI-H1618): < 4.49; pIC50 (NCI-H1734): 5.06; pIC50 (NCI-H322M): < 4.49; pIC50 (PLC-PRF-5): 5.93; pIC50 (Raji): 5.19; pIC50 (SNG-M): 5.56; pIC50 (WSU-NHL): 4.93; pIC50 (CCF-STTG1): 4.89; pIC50 (CMK): 5.32 |
| Oc1ccc2ccccc2c1SSc1c(O)ccc2ccccc12 | 4.93 | < 4.49 | < 4.49 | < 4.49 | < 4.49 | 5.66 | < 4.49 | < 4.49 | < 4.49 | < 4.49 | < 4.49 | 4.66 | < 4.49 | < 4.49 | 5.38 | < 4.49 | < 4.49 | < 4.49 | < 4.49 | < 4.49 | pIC50 (DV-90): < 4.49; pIC50 (EB-3): 4.98; pIC50 (EFE-184): < 4.49; pIC50 (IMR-5): < 4.49; pIC50 (IPC-298): < 4.49; pIC50 (KP-4): < 4.49; pIC50 (NCI-H1618): < 4.49; pIC50 (NCI-H1734): < 4.49; pIC50 (NCI-H322M): < 4.49; pIC50 (PLC-PRF-5): < 4.49; pIC50 (Raji): < 4.49; pIC50 (SNG-M): < 4.49; pIC50 (WSU-NHL): 5.26; pIC50 (CCF-STTG1): < 4.49; pIC50 (CMK): 5.50 |
| C=C(c1ccc(C(=O)O)cc1)c1cc2c(cc1C)C(C)(C)CCC2(C)C [BEXAROTENE] | < 5.10 | < 5.10 | < 5.10 | < 5.10 | < 5.10 | < 5.10 | < 5.10 | < 5.10 | < 5.10 | < 5.10 | < 5.10 | < 5.10 | < 5.10 | < 5.10 | < 5.10 | 5.22 | < 5.10 | 5.15 | < 5.10 | < 5.10 | pIC50 (DV-90): < 5.10; pIC50 (EB-3): < 5.10; pIC50 (EFE-184): < 5.10; pIC50 (IMR-5): < 5.10; pIC50 (IPC-298): < 5.10; pIC50 (NCI-H1618): < 5.10; pIC50 (NCI-H1734): < 5.10; pIC50 (NCI-H322M): < 5.10; pIC50 (PLC-PRF-5): < 5.10; pIC50 (Raji): < 5.10; pIC50 (SNG-M): < 5.10; pIC50 (WSU-NHL): < 5.10; pIC50 (CCF-STTG1): < 5.10; pIC50 (CMK): < 5.10 |
